Assay results as given in PubChem BioAssay AID1963873 (Molecular Pharmacology Branch, DTP, NCI, 2024).

Test system: 276233-004-R-J1-PDC KRAS spheroids with HUVEC/MSC, viability
Assay: Anticancer human tumor 276233-004-R-J1-PDC patient-derived colon adenocarcinoma cell line growth inhibition [KRAS2]
Details: for IC50: curve of first compound; for viability, T/C: stronger effect = lower value
Outline: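 KRAS-mutant tumor cells were grown as spheroids with HUVEC endothelial cells and human MSCs as stroma. Targeted agents were tested alone and with KRAS pathway inhibitors. Doses started at or near clinical Cmax, or 10 microM, descending half-log.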

[1] = second compound 0.1 µM, first compound 0.01 µM
[2] = second compound 0.1 µM, first compound 0.0316 µM
[3] = second compound 0.1 µM, first compound 0.1 µM
[4] = second compound 0.1 µM, first compound 0.316 µM
[5] = second compound 0.1 µM, first compound 1 µM
[6] = second compound 0.1 µM, first compound 3.16 µM
[7] = second compound 0.316 µM, first compound 0.01 µM
[8] = second compound 0.316 µM, first compound 0.0316 µM
[9] = second compound 0.316 µM, first compound 0.1 µM
[10] = second compound 0.316 µM, first compound 0.316 µM
[11] = second compound 0.316 µM, first compound 1 µM
[12] = second compound 0.316 µM, first compound 3.16 µM
[13] = second compound 1 µM, first compound 0.01 µM
[14] = second compound 1 µM, first compound 0.0316 µM
[15] = second compound 1 µM, first compound 0.1 µM
[16] = second compound 1 µM, first compound 0.316 µM
[17] = second compound 1 µM, first compound 1 µM
[18] = second compound 1 µM, first compound 3.16 µM
[19] = second compound 3.16 µM, first compound 0.01 µM
[20] = second compound 3.16 µM, first compound 0.0316 µM
[21] = second compound 3.16 µM, first compound 0.1 µM
[22] = second compound 3.16 µM, first compound 0.316 µM
[23] = second compound 3.16 µM, first compound 1 µM
[24] = second compound 3.16 µM, first compound 3.16 µM
[25] = second compound 10 µM, first compound 0.01 µM
[26] = second compound 10 µM, first compound 0.0316 µM
[27] = second compound 10 µM, first compound 0.1 µM
[28] = second compound 10 µM, first compound 0.316 µM
[29] = second compound 10 µM, first compound 1 µM
[30] = second compound 10 µM, first compound 3.16 µM
[31] = second compound 0.1 µM, first compound 10 µM
[32] = second compound 0.316 µM, first compound 10 µM
[33] = second compound 1 µM, first compound 10 µM
[34] = second compound 3.16 µM, first compound 10 µM
[35] = second compound 10 µM, first compound 10 µM
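Further: cells exposed to agents for seven days before viability read.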
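Wherever viability, T/C is given: 100% = DMSO vehicle control wells and lower values mean fewer viable cells.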

| Compound | IC50 (second compound 0.1 µM) | IC50 (second compound 0.316 µM) | IC50 (second compound 1 µM) | IC50 (second compound 3.16 µM) | IC50 (second compound 10 µM) | viability, T/C [2] | viability, T/C [3] | viability, T/C [4] | viability, T/C [5] | viability, T/C [6] | viability, T/C [8] | viability, T/C [9] | viability, T/C [10] | viability, T/C [11] | viability, T/C [14] | viability, T/C [15] | viability, T/C [20] | viability, T/C [21] | viability, T/C [26] | viability, T/C [27] | other results |
| --- | --- | --- | --- | --- | --- | --- | --- | --- | --- | --- | --- | --- | --- | --- | --- | --- | --- | --- | --- | --- | --- |
| CC(=O)OC12COC1CC(O)C1(C)C(=O)C(O)C3=C(C)C(OC(=O)C(O)C(NC(=O)OC(C)(C)C)c4ccccc4)CC(O)(C(OC(=O)c4ccccc4)C21)C3(C)C (stereo not given) + CNCc1ccccc1-c1csc(C(C)Nc2nc(C)nc3cc(OC)c(OC)cc23)c1 | > 3160 nM | > 3160 nM | > 3160 nM | 21.6 nM | < 10 nM | 96.3% | 83.4% | 81.1% | 105% | 87.5% | 86.1% | 77% | 87.8% | 93.8% | 91.4% | 89.9% | 0.58% | 5.25% | 2.71% | 6.51% | viability, T/C [1]: 102%; viability, T/C [7]: 92%; viability, T/C [12]: 95.7%; viability, T/C [13]: 103%; viability, T/C [16]: 111%; viability, T/C [17]: 119%; viability, T/C [18]: 117%; viability, T/C [19]: 105%; viability, T/C [22]: 1.73%; viability, T/C [23]: 1.78%; viability, T/C [24]: 104%; viability, T/C [25]: 4.38%; viability, T/C [28]: 1.17%; viability, T/C [29]: 110%; viability, T/C [30]: 0.46% |
| CN(C)C/C=C/C(=O)Nc1cc2c(Nc3ccc(F)c(Cl)c3)ncnc2cc1O[C@H]1CCOC1 + CNCc1ccccc1-c1csc(C(C)Nc2nc(C)nc3cc(OC)c(OC)cc23)c1 | > 100 nM | > 100 nM | > 100 nM | < 0.316 nM | < 0.316 nM | 86.8% | 74.7% | – | – | – | 67.9% | 69.8% | – | – | 63% | 79.2% | 8.28% | 1.18% | 0.88% | 0.67% | viability, T/C (second compound 0.1 µM, first compound 0.000316 µM): 95.8%; viability, T/C (second compound 0.1 µM, first compound 0.001 µM): 106%; viability, T/C (second compound 0.1 µM, first compound 0.00316 µM): 89%; viability, T/C [1]: 95.2%; viability, T/C (second compound 0.316 µM, first compound 0.000316 µM): 95.9%; viability, T/C (second compound 0.316 µM, first compound 0.001 µM): 82.5%; viability, T/C (second compound 0.316 µM, first compound 0.00316 µM): 83.1%; viability, T/C [7]: 73%; viability, T/C (second compound 1 µM, first compound 0.000316 µM): 81.4%; viability, T/C (second compound 1 µM, first compound 0.001 µM): 73.5%; viability, T/C (second compound 1 µM, first compound 0.00316 µM): 77.3%; viability, T/C [13]: 81.2%; viability, T/C (second compound 3.16 µM, first compound 0.000316 µM): 4.26%; viability, T/C (second compound 3.16 µM, first compound 0.001 µM): 2.41%; viability, T/C (second compound 3.16 µM, first compound 0.00316 µM): 3.56%; viability, T/C [19]: 3.46%; viability, T/C (second compound 10 µM, first compound 0.000316 µM): 5.68%; viability, T/C (second compound 10 µM, first compound 0.001 µM): 0.19%; viability, T/C (second compound 10 µM, first compound 0.00316 µM): 0.31%; viability, T/C [25]: 0.19% |
| COC(=O)c1ccc2c(C(=Nc3ccc(N(C)C(=O)CN4CCN(C)CC4)cc3)c3ccccc3)c(O)[nH]c2c1 + CNCc1ccccc1-c1csc(C(C)Nc2nc(C)nc3cc(OC)c(OC)cc23)c1 | > 10000 nM | > 10000 nM | 1140 nM | < 31.6 nM | < 31.6 nM | 95.9% | 80.5% | 87.7% | 70.1% | 87.7% | 95.5% | 91.7% | 71.4% | 74.5% | 59.4% | 58.5% | 2.33% | 4.5% | 3.64% | 3.36% | viability, T/C [31]: 70.1%; viability, T/C [12]: 70.4%; viability, T/C [32]: 74.5%; viability, T/C [16]: 56.5%; viability, T/C [17]: 54.6%; viability, T/C [18]: 12.1%; viability, T/C [33]: 14.6%; viability, T/C [22]: 7.73%; viability, T/C [23]: 3.3%; viability, T/C [24]: 9.99%; viability, T/C [34]: 5.4%; viability, T/C [28]: 4.73%; viability, T/C [29]: 6.01%; viability, T/C [30]: 1.8%; viability, T/C [35]: 0.53% |
| O=C(c1cc(Cc2n[nH]c(=O)c3ccccc23)ccc1F)N1CCN(C(=O)C2CC2)CC1 + CNCc1ccccc1-c1csc(C(C)Nc2nc(C)nc3cc(OC)c(OC)cc23)c1 | > 10000 nM | > 10000 nM | > 10000 nM | < 31.6 nM | < 31.6 nM | 98.5% | 99.5% | 84.5% | 87.5% | 110% | 103% | 80.8% | 90.3% | 85.3% | 99.2% | 86.8% | 5.86% | 1.28% | 3.64% | 5.22% | viability, T/C [31]: 96.5%; viability, T/C [12]: 84%; viability, T/C [32]: 68.7%; viability, T/C [16]: 88.5%; viability, T/C [17]: 73.8%; viability, T/C [18]: 87.1%; viability, T/C [33]: 78.2%; viability, T/C [22]: 0.99%; viability, T/C [23]: 1.9%; viability, T/C [24]: 1.8%; viability, T/C [34]: 2.47%; viability, T/C [28]: 3.94%; viability, T/C [29]: 5.16%; viability, T/C [30]: 0.77%; viability, T/C [35]: 1.05% |
